According to patent US20240360091A1, “GLUN2B-SUBUNIT SELECTIVE ANTAGONISTS OF THE N-METHYL-D-ASPARTATE RECEPTORS WITH ENHANCED POTENCY AT ACIDIC PH” (Emory University, priority 2021, published 2024):
Read-outs that look alike come from different tables or passages of the source.

Columns and labels:
GluN2D = GluN2D (Homo sapiens (Human), UniProt O15399); assay: Two electrode voltage-clamp recordings, single concentration, GluN2D; type: cell-based; conditions: pH 6.9
hERG potassium channel = hERG potassium channel (Homo sapiens (Human), UniProt Q12809); assay: hERG potassium channel current, automatic patch clamp in HEK cells; type: cell-based; conditions: pH 7.4, patch clamp; read-out: Functional IC50 (μM) hERG
hERG potassium channel, sequence (Q12809 whole entry): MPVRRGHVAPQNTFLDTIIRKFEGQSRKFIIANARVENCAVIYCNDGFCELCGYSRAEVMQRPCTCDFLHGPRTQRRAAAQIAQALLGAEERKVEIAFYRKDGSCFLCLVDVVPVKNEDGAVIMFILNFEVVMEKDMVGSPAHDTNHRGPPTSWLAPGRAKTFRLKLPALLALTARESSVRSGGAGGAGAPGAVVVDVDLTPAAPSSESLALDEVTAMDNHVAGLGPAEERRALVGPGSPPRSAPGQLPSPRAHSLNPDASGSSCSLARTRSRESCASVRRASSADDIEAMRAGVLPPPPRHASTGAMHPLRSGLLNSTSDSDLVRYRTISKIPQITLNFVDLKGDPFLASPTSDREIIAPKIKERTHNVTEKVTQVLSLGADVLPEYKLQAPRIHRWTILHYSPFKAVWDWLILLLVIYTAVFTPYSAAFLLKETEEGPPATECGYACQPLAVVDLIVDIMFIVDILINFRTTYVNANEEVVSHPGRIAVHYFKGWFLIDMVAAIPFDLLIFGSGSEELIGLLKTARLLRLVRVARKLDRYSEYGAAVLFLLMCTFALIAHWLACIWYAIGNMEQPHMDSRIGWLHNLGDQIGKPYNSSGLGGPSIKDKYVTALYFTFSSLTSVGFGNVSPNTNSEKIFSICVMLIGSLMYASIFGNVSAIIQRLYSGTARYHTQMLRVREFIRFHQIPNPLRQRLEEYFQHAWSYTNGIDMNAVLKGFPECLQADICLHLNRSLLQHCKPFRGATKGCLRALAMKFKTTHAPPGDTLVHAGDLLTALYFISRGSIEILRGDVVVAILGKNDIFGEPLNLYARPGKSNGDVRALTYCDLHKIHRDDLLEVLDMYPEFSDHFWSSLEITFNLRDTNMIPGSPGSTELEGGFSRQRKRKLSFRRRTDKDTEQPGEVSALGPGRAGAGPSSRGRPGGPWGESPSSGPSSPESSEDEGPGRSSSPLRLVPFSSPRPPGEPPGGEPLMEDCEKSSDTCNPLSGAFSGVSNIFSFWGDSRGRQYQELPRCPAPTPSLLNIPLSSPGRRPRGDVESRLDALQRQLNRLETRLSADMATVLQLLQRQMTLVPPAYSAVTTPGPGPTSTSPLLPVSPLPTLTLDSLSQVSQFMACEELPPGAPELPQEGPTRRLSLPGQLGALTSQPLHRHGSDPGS
Procedure: Each test concentration was tested in two or more cells (n≥2). Duration of exposure to each test article concentration was 3 minutes. A positive control (0.5 μM […]) was used to confirm the sensitivity of the cells to an hERG inhibitor.

[1] = Pharmacokinetics in the brain compartment compared to plasma in mice; type: in vivo; conditions: BALB/c, mouse; for Cmax at 1 h: iv
Procedure: Formulation for pharmacokinetic studies used 2% or 10% N′,N′-dimethylacetamide, 10% propylene glycol, and 30% 2-hydroxypropyl-beta-cyclodextrin in water and a dose volume of 10 mL/kg (all routes of administration).
Here, brain samples were first washed in deionized water to remove blood, the weight recorded, then transferred into fresh 1 mL water, homogenized, and stored at −80° C. until analysis. The ratio of compound in brain (g) compared to blood (mL) was then calculated.

[2] = Liver microsome stability, human; type: in vitro ADME; conditions: 1 μM, with cofactors, one-hour incubation at 37° C.
Procedure: (§1) Metabolic stability was assessed using human and mouse liver microsomes (Xenotech, USA). The final composition of the assay included 1 μM of the test compound or reference standards (imipramine and diclofenac sodium) prepared from DMSO or acetonitrile stock, so that the final concentration of DMSO and acetonitrile was 0.2% and 0.8%, respectively. The test compound was incubated with 0.5 mg/mL microsomal protein without (100 mM potassium phosphate buffer alone, pH 7.4) or with cofactors (5.0 mM glucose-6-phosphate, 0.06 U glucose-6-phosphate dehydrogenase, 2.0 mM MgCl2, 1.0 mM NADP^+/NADPH). The test compound and standards were incubated at 37° C. with human and mouse liver microsomes; aliquots of the reaction mixture (100 μL) were removed at 0, 5, 15, 30, 60 and 120 min. The reaction in the aliquots was stopped by the addition of 2.5 mL tert-butyl methyl ether and the samples were subjected to shaking for 15 min. […] The percent of the test compound remaining after the specified incubation period was calculated with respect to the peak areas of the test compound at time 0 min.
(§2) The compound and standards were incubated with human and mouse liver microsomes with or without cofactors, and the samples were extracted and analyzed using LC-MS/MS, as described above.

[3] = Plasma protein binding, rapid equilibrium dialysis, human; type: in vitro ADME; conditions: n=2
Procedure: Plasma protein binding was performed with a rapid equilibrium dialysis (RED) device containing dialysis membrane with a molecular weight cut-off of 8,000 Daltons according to the manufacturer's instructions (ThermoFisher, USA). The plasma samples (pH 7.4) and the test compound solution (1 or 5 μM) or reference standards (Warfarin and Propranolol, 10 μM) were combined (DMSO final conc 0.1%). 300 μL of this spiked plasma sample was added to the sample chamber, and 500 μL of blank PBS buffer (pH 7.4) was added into the buffer chamber. The RED device was sealed with adhesive film and then incubated at 37° C. with shaking at 300 rpm for 4 h. Following incubation, an aliquot (50 μL) was removed from each well (spiked plasma and buffer side) and diluted with equal volume of the corresponding opposite matrix (blank buffer or blank plasma) to nullify the matrix effect, and then extracted for analysis by LC-MS/MS. The amount of free material was determined by:
% Free=(LC-MS/MS peak area of test compound in buffer side/LC-MS/MS peak area of test compound in plasma side)×100%

5-HT2A [4] = target: T1, 5-HT2A (Homo sapiens (Human), UniProt P28223); assay: Functional agonism/antagonism, IP1 HTRF in HEK293 cells; type: cell-based
T1 sequence (P28223 whole entry): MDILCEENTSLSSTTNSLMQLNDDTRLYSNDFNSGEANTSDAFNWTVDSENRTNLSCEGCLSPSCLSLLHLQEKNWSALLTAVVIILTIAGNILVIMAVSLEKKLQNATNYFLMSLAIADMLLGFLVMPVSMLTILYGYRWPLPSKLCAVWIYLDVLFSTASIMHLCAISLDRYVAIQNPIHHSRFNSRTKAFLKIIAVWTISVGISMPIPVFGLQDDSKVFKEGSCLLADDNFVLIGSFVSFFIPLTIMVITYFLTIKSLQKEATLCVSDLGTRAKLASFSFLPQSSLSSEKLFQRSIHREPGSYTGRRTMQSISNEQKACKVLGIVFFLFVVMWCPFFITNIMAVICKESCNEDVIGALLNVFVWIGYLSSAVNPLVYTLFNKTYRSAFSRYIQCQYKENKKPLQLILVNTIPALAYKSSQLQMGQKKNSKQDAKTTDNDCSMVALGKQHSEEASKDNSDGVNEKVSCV
Procedure: These receptor targets include the 5-HT2A receptor, the functional study of which was performed at pH 7.4 (Porter, et al., Br J Pharmacol, 1999, 128:13-20; CEREP, France). […] Separate wells stimulated with 10 μM serotonin served as a positive control. […] The cells were stimulated with 100 nM serotonin.

5-HT2B = 5-HT2B (Homo sapiens (Human), UniProt P41595); assay: biochemical
5-HT2B, sequence (P41595 whole entry, species assumed): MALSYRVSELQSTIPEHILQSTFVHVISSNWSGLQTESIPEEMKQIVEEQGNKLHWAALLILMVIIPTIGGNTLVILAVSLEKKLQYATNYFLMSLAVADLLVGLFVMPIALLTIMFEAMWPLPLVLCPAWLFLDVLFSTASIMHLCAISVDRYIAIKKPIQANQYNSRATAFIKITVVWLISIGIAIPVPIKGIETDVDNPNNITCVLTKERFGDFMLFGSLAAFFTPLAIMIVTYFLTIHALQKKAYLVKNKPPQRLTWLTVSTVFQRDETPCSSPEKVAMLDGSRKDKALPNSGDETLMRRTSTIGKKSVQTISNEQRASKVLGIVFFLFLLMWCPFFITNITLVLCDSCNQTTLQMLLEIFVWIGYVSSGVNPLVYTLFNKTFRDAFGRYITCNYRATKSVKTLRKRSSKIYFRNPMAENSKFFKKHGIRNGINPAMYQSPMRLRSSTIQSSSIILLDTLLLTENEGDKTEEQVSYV
Procedure: (§3) Briefly, the compound was submitted to the NIMH PDSP and screened at a single concentration (10 μM) of test article under equilibrium conditions for ability to displace specific radioligands from binding to their targets expressed in mammalian cell membranes in vitro. Each receptor target was assayed in quadruplicate and the % inhibition of radioligand binding at each target determined at pH 7.4. […]

[5] = Liver microsome stability, mouse; type: in vitro ADME; conditions: 1 μM, with cofactors, one-hour incubation at 37° C.
Procedure: as §1, §2

5-HT2A [6] = target: T1, 5-HT2A; assay: Off-target radioligand binding displacement (NIMH PDSP); conditions: pH 7.4
Procedure: as §3

5-HT1D = 5-HT1D (Homo sapiens (Human), UniProt P28221); assay: as above; conditions: pH 7.4
5-HT1D, sequence (P28221 whole entry, species assumed): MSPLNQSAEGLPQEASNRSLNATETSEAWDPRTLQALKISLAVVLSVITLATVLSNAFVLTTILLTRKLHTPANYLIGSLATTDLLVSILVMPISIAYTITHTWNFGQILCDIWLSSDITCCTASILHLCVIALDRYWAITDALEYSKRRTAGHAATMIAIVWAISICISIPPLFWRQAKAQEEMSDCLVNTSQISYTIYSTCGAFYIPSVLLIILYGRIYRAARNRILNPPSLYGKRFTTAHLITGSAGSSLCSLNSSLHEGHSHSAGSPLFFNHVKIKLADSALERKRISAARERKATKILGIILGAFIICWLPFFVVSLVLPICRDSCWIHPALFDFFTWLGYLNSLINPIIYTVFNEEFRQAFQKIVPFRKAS
Procedure: as §3

GluN2D, sequence (O15399 28-1336, other chains not shown): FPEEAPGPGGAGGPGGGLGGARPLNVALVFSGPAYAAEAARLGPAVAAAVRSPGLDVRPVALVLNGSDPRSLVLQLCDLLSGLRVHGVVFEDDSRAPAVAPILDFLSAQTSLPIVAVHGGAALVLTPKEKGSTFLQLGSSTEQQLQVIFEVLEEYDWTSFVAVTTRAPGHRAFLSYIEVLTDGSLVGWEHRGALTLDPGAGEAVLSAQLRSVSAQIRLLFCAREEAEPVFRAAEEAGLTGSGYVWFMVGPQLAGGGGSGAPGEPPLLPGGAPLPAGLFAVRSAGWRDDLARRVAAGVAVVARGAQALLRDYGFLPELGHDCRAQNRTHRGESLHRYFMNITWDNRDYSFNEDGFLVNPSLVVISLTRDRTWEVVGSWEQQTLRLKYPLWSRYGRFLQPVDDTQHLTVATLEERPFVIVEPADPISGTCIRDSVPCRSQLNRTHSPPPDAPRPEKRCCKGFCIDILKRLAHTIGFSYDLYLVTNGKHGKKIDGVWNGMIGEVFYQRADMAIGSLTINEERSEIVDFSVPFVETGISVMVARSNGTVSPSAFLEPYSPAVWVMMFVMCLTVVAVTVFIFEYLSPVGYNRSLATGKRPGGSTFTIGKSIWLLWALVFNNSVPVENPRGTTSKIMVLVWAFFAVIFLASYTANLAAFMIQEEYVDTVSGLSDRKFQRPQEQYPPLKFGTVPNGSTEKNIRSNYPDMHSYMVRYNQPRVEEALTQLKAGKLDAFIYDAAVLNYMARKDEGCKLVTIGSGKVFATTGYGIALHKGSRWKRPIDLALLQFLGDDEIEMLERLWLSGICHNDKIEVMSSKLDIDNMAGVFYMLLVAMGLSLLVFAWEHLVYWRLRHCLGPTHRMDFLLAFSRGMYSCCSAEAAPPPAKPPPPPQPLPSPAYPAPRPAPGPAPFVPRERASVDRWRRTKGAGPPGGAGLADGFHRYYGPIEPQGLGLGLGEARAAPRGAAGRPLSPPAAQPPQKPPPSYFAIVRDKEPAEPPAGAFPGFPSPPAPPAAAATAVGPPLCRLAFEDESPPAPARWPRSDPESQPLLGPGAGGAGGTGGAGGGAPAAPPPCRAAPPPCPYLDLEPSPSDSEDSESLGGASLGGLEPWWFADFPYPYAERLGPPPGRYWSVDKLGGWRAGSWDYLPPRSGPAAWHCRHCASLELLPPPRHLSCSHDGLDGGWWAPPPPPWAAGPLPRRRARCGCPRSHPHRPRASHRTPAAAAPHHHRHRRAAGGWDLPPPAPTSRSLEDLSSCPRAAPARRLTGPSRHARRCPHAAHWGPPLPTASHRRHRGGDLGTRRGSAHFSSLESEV

off-target inhibition against GluN2D (GluN2D; 3 μM): no noticeable off-target inhibition | GluN2D % residual (GluN2D; % current remaining after 3 μM compound): 98.3 (pH 6.9) % | concentration at 1 h ([1]; brain, intraperitoneal, 5 mg/kg, 5 mg/kg IP, 1 hour post dosing, read-out: estimated free drug concentration in the brain): 60 to 134 nM | concentration at 2 h ([1]; brain, intraperitoneal, 5 mg/kg, 5 mg/kg IP, 2 hours post dosing, read-out: estimated free drug concentration in the brain): 51 to 103 nM | concentration at 4 h ([1]; brain, intraperitoneal, 5 mg/kg, 5 mg/kg IP, 4 hours post dosing, read-out: estimated free drug concentration in the brain): 33 to 66 nM | concentration at 8 h ([1]; brain, intraperitoneal, 5 mg/kg, 5 mg/kg IP, 8 hours post dosing, read-out: estimated free drug concentration in the brain): 28 to 56 nM | concentration at 1 h ([1]; brain, intravenous, 3 mg/kg, 3 mg/kg IV, Study 1, 1 hour, read-out: Brain Conc.): 1740 ng/g | concentration at 1 h ([1]; brain, intravenous, 3 mg/kg, 3 mg/kg IV, Study 2A (2% DMA formulation), 1 hour, read-out: Brain Conc.): 1420 ng/g | concentration at 1 h ([1]; brain, intravenous, 3 mg/kg, 3 mg/kg IV, Study 2B, 1 hour, read-out: Brain Conc.): 2100 ng/g | Cmax at 1 h ([1]; plasma, 3 mg/kg, 3 mg/kg IV, Study 1, 1 hour): 2300 ng/mL | Cmax at 1 h ([1]; plasma, 3 mg/kg, 3 mg/kg IV, Study 2A (2% DMA formulation), 1 hour): 600 ng/mL | Cmax at 1 h ([1]; plasma, 3 mg/kg, 3 mg/kg IV, Study 2B, 1 hour): 817 ng/mL | Tmax ([1]; plasma, 3 mg/kg IV, Study 1): 1 h | percent remaining in human liver microsomes [2]: 72% | bound to human plasma proteins [3]: 97.7% | functional agonism or antagonism at 5-HT2A (5-HT2A [4]; pH 7.4): behaved as an antagonist | IC50 (5-HT2A [4]; pH 7.4, antagonism vs 100 nM serotonin): 1.71 µM | Ki (5-HT2B): 1.92 µM | percent remaining in mouse liver microsomes [5]: 54% | Ki (5-HT2A [6]): 0.638 µM | Ki (5-HT1D): 2.29 µM
SMILES: O=C1CCc2cc(OC[C@H](O)CN3CCN(c4ccc(C(F)(F)F)cc4)CC3)ccc2N1 [NP10679]
IC50 (hERG potassium channel): 0.617 µM
